# From patent US20230416205A1, “COMPOUNDS, COMPOSITIONS, AND METHODS” (Denali Therapeutics Inc, priority 2020, published 2023)
# Like-named read-outs stand apart in the source and are kept apart here.
# Test system: NLRP3
# Experiment: IL-1β secretion assay in PMA-differentiated, LPS/nigericin-stimulated THP-1 cells (384-well, ELISA read-out)
# Assay type: cell-based, human
# Details: Homo sapiens
# Procedure, shortened: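 Secreted IL-1β quantified by capture ELISA from supernatants of PMA-differentiated THP-1 cells (30K per well). Sequence: LPS 25 ng/mL priming 2 h, compound 1 h, nigericin 2 h; dose-responses normalized between high (LPS plus 5 μM nigericin) and low (LPS alone) controls.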
# [1] = THP-1, IL-1β secretion, PMA-differentiated THP-1 cells, LPS then nigericin stimulation, ELISA read at 450 nm, read-out: Activity
# [2] = THP-1, Table 4, IL-1β secretion, LPS/nigericin-stimulated THP-1 cells, read-out: IC50
Structure (SMILES),IC50 [1] [µM],IC50 [2] [µM]
"O=C(CN1CC2(CC2)c2cc(Br)ccc2C1=O)Nc1cncc2ccccc12 [Example 153, 2-(6-bromo-1-oxospiro[3H-isoquinoline-4,1′-cyclopropane]-2-yl)-N-isoquinolin-4-ylacetamide]",> 15,32.9
"Cc1c[nH]c(=O)c(NC(=O)CN2CC3(CC3)c3cc(Br)ccc3C2=O)c1 [Example 154, 2-(6-bromo-1-oxospiro[3H-isoquinoline-4,1′-cyclopropane]-2-yl)-N-(5-methyl-2-oxo-1H-pyridin-3-yl)acetamide]",< 10,4.33
"O=C(CN1CC2(CC2)c2cc(Br)ccc2C1=O)Nc1cccn2ccnc12 [Example 155, 2-(6-bromo-1-oxospiro[3H-isoquinoline-4,1′-cyclopropane]-2-yl)-N-imidazo[1,2-a]pyridin-8-ylacetamide]",< 10,3.61
"O=C(CN1CC2(CC2)c2cc(Br)ccc2C1=O)Nc1cnc2[nH]ccc2c1 [Example 156, 2-(6-bromo-1-oxospiro[3H-isoquinoline-4,1′-cyclopropane]-2-yl)-N-(1H-pyrrolo[2,3-b]pyridin-5-yl)acetamide]",< 10,4.39
"O=C(CN1CC2(CC2)c2cc(Br)ccc2C1=O)Nc1ccc2c(c1)OC(F)(F)O2 [Example 157, 2-(6-bromo-1-oxospiro[3H-isoquinoline-4,1′-cyclopropane]-2-yl)-N-(2,2-difluoro-1,3-benzodioxol-5-yl)acetamide]",< 10,9.98
"O=C1c2ccc(Br)cc2C2(CC2)CN1CC(=O)N1CCc2cccnc21 [Example 158, 6-bromo-2-[2-(2,3-dihydropyrrolo[2,3-b]pyridin-1-yl)-2-oxoethyl]spiro[3H-isoquinoline-4,1′-cyclopropane]-1-one]",< 10,5.9
"O=C(CN1CC2(CC2)c2cc(Br)ccc2C1=O)Nc1ccc2nncn2c1 [Example 159, 2-(6-bromo-1-oxospiro[3H-isoquinoline-4,1′-cyclopropane]-2-yl)-N-([1,2,4]triazolo[4,3-a]pyridin-6-yl)acetamide]",< 10,1.77
"O=C(CN1CC2(CC2)c2cc(Br)ccc2C1=O)NC1(CO)CC1 [Example 160, 2-(6-bromo-1-oxospiro[3H-isoquinoline-4,1′-cyclopropane]-2-yl)-N-[1-(hydroxymethyl)cyclopropyl]acetamide]",< 10,4.2
"O=C(CN1CC2(CC2)c2cc(Br)ccc2C1=O)NC1(c2ccccc2)CC1 [Example 161, 2-(6-bromo-1-oxospiro[3H-isoquinoline-4,1′-cyclopropane]-2-yl)-N-(1-phenylcyclopropyl)acetamide]",< 10,6.12
"O=C(CN1CC2(CC2)c2cc(Br)ccc2C1=O)Nc1cccc2ncccc12 [Example 162, 2-(6-bromo-1-oxospiro[3H-isoquinoline-4,1′-cyclopropane]-2-yl)-N-quinolin-5-ylacetamide]",< 10,3.54
"O=C(CN1CC2(CC2)c2cc(Br)ccc2C1=O)Nc1ncc(F)s1 [Example 163, 2-(6-bromo-1-oxospiro[3H-isoquinoline-4,1′-cyclopropane]-2-yl)-N-(5-fluoro-1,3-thiazol-2-yl)acetamide]",< 10,6.66
"O=C(CN1CC2(CC2)c2cc(Br)ccc2C1=O)NCC1CCC1 [Example 164, 2-(6-bromo-1-oxospiro[3H-isoquinoline-4,1′-cyclopropane]-2-yl)-N-(cyclobutylmethyl)acetamide]",< 10,6.01
"O=C(CN1CC2(CC2)c2cc(Br)ccc2C1=O)NC1CCN(c2ccc(Cl)nn2)CC1 [Example 165, 2-(6-bromo-1-oxospiro[3H-isoquinoline-4,1′-cyclopropane]-2-yl)-N-[1-(6-chloropyridazin-3-yl)piperidin-4-yl]acetamide]",< 10,1.63
"O=C(CN1CC2(CC2)c2cc(Br)ccc2C1=O)Nc1n[nH]c2ccccc12 [Example 166, 2-(6-bromo-1-oxospiro[3H-isoquinoline-4,1′-cyclopropane]-2-yl)-N-(1H-indazol-3-yl)acetamide]",< 10,4.84
"O=C(CN1CC2(CC2)c2cc(Br)ccc2C1=O)Nc1ccc2[nH]nnc2c1 [Example 167, N-(1H-benzotriazol-5-yl)-2-(6-bromo-1-oxospiro[3H-isoquinoline-4,1′-cyclopropane]-2-yl)acetamide]",< 10,0.146
"O=C(CN1CC2(CC2)c2cc(Br)ccc2C1=O)Nc1cc(C2CC2)n[nH]1 [Example 168, 2-(6-bromo-1-oxospiro[3H-isoquinoline-4,1′-cyclopropane]-2-yl)-N-(3-cyclopropyl-1H-pyrazol-5-yl)acetamide]",< 10,2.83
"O=C(CN1CC2(CC2)c2cc(Br)ccc2C1=O)Nc1ccc2nc[nH]c2c1 [Example 169, N-(3H-benzimidazol-5-yl)-2-(6-bromo-1-oxospiro[3H-isoquinoline-4,1′-cyclopropane]-2-yl)acetamide]",< 10,0.605

Structure (SMILES),IC50 [1] [µM],IC50 [2] [µM]
"O=C(CN1CC2(CC2)c2cc(Br)ccc2C1=O)Nc1ccc2[nH]ncc2c1 [Example 170, 2-(6-bromo-1-oxospiro[3H-isoquinoline-4,1′-cyclopropane]-2-yl)-N-(1H-indazol-5-yl)acetamide]",< 10,1.12
"Cc1cncc(NC(=O)CN2CC3(CC3)c3cc(Br)ccc3C2=O)n1 [Example 171, 2-(6-bromo-1-oxospiro[3H-isoquinoline-4,1′-cyclopropane]-2-yl)-N-(6-methylpyrazin-2-yl)acetamide]",10 to 15,11
"O=C(CN1CC2(CC2)c2cc(Br)ccc2C1=O)Nc1ccc(-c2nnn[nH]2)cc1 [Example 172, 2-(6-bromo-1-oxospiro[3H-isoquinoline-4,1′-cyclopropane]-2-yl)-N-[4-(1H-tetrazol-5-yl)phenyl]acetamide]",> 15,23.7
"O=C(CN1CC2(CC2)c2cc(Br)ccc2C1=O)Nc1ccc2ocnc2c1 [Example 173, N-(1,3-benzoxazol-5-yl)-2-(6-bromo-1-oxospiro[3H-isoquinoline-4,1′-cyclopropane]-2-yl)acetamide]",< 10,2.3
"CC(C)(O)CC1(NC(=O)CN2CC3(CC3)c3cc(Br)ccc3C2=O)CC1 [Example 174, 2-(6-bromo-1-oxospiro[3H-isoquinoline-4,1′-cyclopropane]-2-yl)-N-[1-(2-hydroxy-2-methylpropyl)cyclopropyl]acetamide]",10 to 15,10.9
"O=C(CN1CC2(CC2)c2cc(Br)ccc2C1=O)Nc1ccn2nccc2n1 [Example 175, 2-(6-bromo-1-oxospiro[3H-isoquinoline-4,1′-cyclopropane]-2-yl)-N-pyrazolo[1,5-a]pyrimidin-5-ylacetamide]",< 10,0.672
"O=C(CN1CC2(CC2)c2cc(Br)ccc2C1=O)Nc1cc2cccnc2cn1 [Example 176, 2-(6-bromo-1-oxospiro[3H-isoquinoline-4,1′-cyclopropane]-2-yl)-N-(1,7-naphthyridin-6-yl)acetamide]",< 10,2.95
"N#Cc1ccc2c(c1)C1(CC1)CN(CC(=O)Nc1ncc(F)cn1)C2=O [Example 177, 2-(6-cyano-1-oxospiro[3H-isoquinoline-4,1′-cyclopropane]-2-yl)-N-(5-fluoropyrimidin-2-yl)acetamide]",< 10,4.41
"CC1(C)CN(CC(=O)Nc2ncc(F)cn2)C(=O)c2ccc(Br)cc21 [Example 178, 2-(6-bromo-4,4-dimethyl-1-oxo-3H-isoquinolin-2-yl)-N-(5-fluoropyrimidin-2-yl)acetamide]",< 10,1.05
"O=C(CN1CC2(CC2)c2cc(Br)ccc2C1=O)Nc1cn2ccnc2cn1 [Example 179, 2-(6-bromo-1-oxospiro[3H-isoquinoline-4,1′-cyclopropane]-2-yl)-N-imidazo[1,2-a]pyrazin-6-ylacetamide]",< 10,2.24
"O=C(CN1CC2(CC2)c2cc(Br)ccc2C1=O)Nc1ccc2nccn2n1 [Example 180, 2-(6-bromo-1-oxospiro[3H-isoquinoline-4,1′-cyclopropane]-2-yl)-N-imidazo[1,2-b]pyridazin-6-ylacetamide]",< 10,0.508
O=C(CN1CC2(CC2)c2cc(Br)ccc2C1=O)Nc1nc2ccccn2n1 [Example 181],< 10,0.143
"Cc1ccnc(NC(=O)CN2CC3(CC3)c3cc(Br)ccc3C2=O)c1 [Example 182, 2-(6-bromo-1-oxospiro[3H-isoquinoline-4,1′-cyclopropane]-2-yl)-N-(4-methylpyridin-2-yl)acetamide]",< 10,3.14
"CS(=O)(=O)c1ccc(NC(=O)CN2CC3(CC3)c3cc(Br)ccc3C2=O)c(Cl)c1 [Example 183, 2-(6-bromo-1-oxospiro[3H-isoquinoline-4,1′-cyclopropane]-2-yl)-N-(2-chloro-4-methylsulfonylphenyl)acetamide]",< 10,8.08
"Cc1nc(NC(=O)CN2CC3(CC3)c3cc(Br)ccc3C2=O)ncc1F [Example 184, 2-(6-bromo-1-oxospiro[3H-isoquinoline-4,1′-cyclopropane]-2-yl)-N-(5-fluoro-4-methylpyrimidin-2-yl)acetamide]",< 10,0.651
"COc1cnc(NC(=O)CN2CC3(CC3)c3cc(Br)ccc3C2=O)nc1 [Example 185, 2-(6-bromo-1-oxospiro[3H-isoquinoline-4,1′-cyclopropane]-2-yl)-N-(5-methoxypyrimidin-2-yl)acetamide]",< 10,0.469
